# Values joined by “and” are separate entries in the source; they are usually repeats but may differ in a detail not shown here. Equal entries are not always repeated.
# Assays:
# [1] = test system: Primary hepatocytes (Rat); experiment: In vitro phosphorylation in hepatocytes (LddA-TP formation), rat; type: in vitro ADME
# Procedure: (§1) Measurements of the concentration of 2′-3′-dideoxyadenosine-5′-triphosphate (ddATP) (the triphosphate nucleotide of 2′-3′-dideoxyadenosine (ddA) are performed by liquid chromatography tandem mass spectrometry (LC/MS/MS), e.g., of methanolic extracts of hepatocytes.
# (§2) The concentration of ddATP is measured by comparison to a standard curve. Working stock solutions of TP-ddA are prepared from a […] stock solution in de-ionized water of ddATP (tetrasodium salt of >91% purity) purchased from Sigma Chemical Co as follows:
# (§3) HPLC is conducted on Phenomenex Luna Amino 3 μm 100 A, 30×2 mm column, with a mobile phase: A: 70% 10 mM NH4OAc 30% ACN pH 6.0; and B: 70% 1 mM NH4OAc 30% ACN pH 10.5 as follows:
# (§4) Primary hepatocytes (Rat, Cynomolgus Monkey or human) were seeded at 0.8×10^6 in a collagen-coated 12-well plate and allowed to attach 4-6 hours after which time the seeding medium was replaced with serum-free culture medium and cells allowed to acclimatize to the new medium overnight. On the next day, cells were exposed for 1, 4, 8 and 24 hours to test article A550 (NM204) at 10 and 50 μM prepared in fresh culture medium from stock solution in DMSO (final DMSO concentration was 0.1%). At each time point, an aliquot (500 μl) was collected and immediately added to 500 μl of acetonitrile and stored at −20° C. until analysis. The remaining exposure medium was removed and the cell monolayer (stuck to dish) washed 2 times with ice-cold PBS. Any remaining PBS was carefully removed by aspiration and cells were harvested by scraping in 1 mL 70% ice-cold methanol. Cell samples were placed overnight at −20° C. and cellular debris removed by centrifugation on the next day. The supernatants were removed and filtered prior to analysis by LC/MS. A standard curve was prepared by using untreated cells processed similarly except that prior to harvesting in 70% methanol, 10 μl of LddATP standard solutions prepared in methanol were added to the washed monolayers. These control samples were then processed and analyzed as described for test samples.
# [2] = test system: Primary hepatocytes (Cynomolgus Monkey); experiment: In vitro phosphorylation in hepatocytes (LddA-TP formation), monkey; type: in vitro ADME
# Procedure: as §1, §2, §3, §4
# [3] = test system: Primary hepatocytes (human); experiment: In vitro phosphorylation in hepatocytes (LddA-TP formation), human; type: in vitro ADME
# Procedure: as §1, §2, §3, §4
# [4] = In vivo studies in rat: A550 and LddATP measured in livers after IV or oral dose; conditions: male rat liver
# Procedure: Distribution of A550 (NM-204) (the compound of Example 1 (Hydroxy-tBuSATE N-benzylphosphoroamidate derivative of L-ddA) in the rat liver was evaluated following a single intravenous (I.V.) or oral administration of A550 (NM-204) at a dose of 20 (oral) or 10 (I.V.) mg/Kg body weight. The dose solutions were prepared on the same day prior to dose administration.
# At the specified time point (1 and 3 hours for IV animals or 1, 3 and 8 hours for oral animals), each animal was euthanized by CO2 gas followed by exsanguination via the abdominal vein. Livers were collected immediately after sacrifice, flash frozen in liquid nitrogen, placed on dry ice, and later stored at −70° C., before being analyzed.
# Control rat liver samples were taken from whole frozen livers (Bioreclamation, Inc. Hicksville, N.Y.) with the aid of a tissue coring utensil (Harris Unicore, 8.0 mm, VWR). Each ˜0.1 g sample was placed in individual 2 mL poly vials with 0.940 mL of 80% MeOH/20% DIH2O and homogenates were prepared using a mechanical tissue disruptor (Tissue Master, Omni-International, Inc, Marietta Ga.). The vials received a 10 μl aliquot of a working stock solution and a 50 μl aliquot of the ISTD before vortexing for ˜30 sec. The mixtures were stored overnight at −20° C. and the next day were removed for 10 min of centrifugation in a benchtop centrifuge. Each supernatant was transferred to individual centrifugation filtration units (0.45 μm) and the resulting filtrates were transferred to HPLC vials for the LC/MS/MS analysis. The final concentrations of ddATP in the calibration standards was 1000, 500, 250, 125, 50, and 0 pmol/ml. Each calibration standard was directly injected in a 50 μL volume onto the ion-exchange column for analysis. Standard curve analysis of calibration standards from control liver extracts was conducted.
# Analysis of ddATP was done by an ion-exchange chromatography method with on-line positive ionization ESI-MS/MS detection in multiple reaction monitoring (MRM) detection mode. […] This is equivalent to a range of […] per gram liver by the sample preparation employed. The HPLC MS MS conditions described in Example 5 were utilized.
# [5] = test system: Primary hepatocyte cultures (human); experiment: Determination of triphosphate levels in cells, human primary hepatocytes; type: in vitro ADME; conditions: general statement on the table of b531, 10 μM drug
# Procedure: Freshly isolated cells from animal and human liver were obtained in suspension on ice. Following receipt, cells were pelleted by centrifugation at 500 rpm (rat) or 700 rpm (monkey and human) and resuspended at 0.8 million cells per mL of platting medium (HPM). Multi-well collagen-coated plates (12-well) were then seeded by addition of 1 mL of cell suspention (0.8 million cells/mL). The plates were gently shaken to evenly distribute the cells and placed in an incubator at 37° C. for approximately 4 to 6 hours to allow cells to attach. Once cells have attached, the platting medium was removed and replaced with hepatocyte culture medium (HCM). Cells were left overnight in an incubator at 37° C. to acclimatize to culture and the medium.
# Hepatocyte incubations were conducted in a final volume of 1.0 mL HCM/well (0.8 million cells/mL). HCM from overnight incubation of cells was removed and replaced with fresh HCM, pre-warmed to 37° C., containing 10 μM test article from a stock solution in DMSO (final DMSO concentration was 0.1%). […]
# Cellular extracts were prepared by transferring 0.9 mL of extract into 2 mL microfuge tubes followed by centrifugation for 5 min at 14,000 rpm. Approximately 100 μL of the supernatant was transferred to HPLC vials and triphosphate levels determined by LCMS/MS as described below. […]
# [6] = IV dose 10 mg/kg, 1 hr, individual animals, 10 mg/kg
# [7] = IV dose 10 mg/kg, 3 hrs, individual animals, 10 mg/kg
# [8] = Oral dose 20 mg/kg, 1 hr, individual animals, 20 mg/kg
# [9] = Oral dose 20 mg/kg, 3 hrs, Mean
# [10] = Oral dose 20 mg/kg, 3 hrs, individual animals, 20 mg/kg
# [11] = Oral dose 20 mg/kg, 8 hrs, Mean
# [12] = Oral dose 20 mg/kg, 8 hrs, individual animals, 20 mg/kg
compound,measurement,setting,value
Hydroxy-tBuSATE N-benzylphosphoroamidate derivative of L-ddA [Example A550],LddA TP Levels,"[1]; 10 μM, 1 hour",159.5 pmol/million cells
same,LddA TP Levels,"[1]; 10 μM, 4 hours",388.0 pmol/million cells
same,LddA TP Levels,"[1]; 10 μM, 8 hours",468.5 pmol/million cells
same,LddA TP Levels,"[1]; 10 μM, 24 hours",422.0 pmol/million cells
same,LddA TP Levels,"[1]; 50 μM, 1 hour",393.0 pmol/million cells
same,LddA TP Levels,"[1]; 50 μM, 4 hours",1212.0 pmol/million cells
same,LddA TP Levels,"[1]; 50 μM, 8 hours",1590.0 pmol/million cells
same,LddA TP Levels,"[1]; 50 μM, 24 hours",1505.0 pmol/million cells
same,LddA TP Levels,"[2]; 10 μM, 1 hour",287.5 pmol/million cells
same,LddA TP Levels,"[2]; 10 μM, 4 hours",978.0 pmol/million cells
same,LddA TP Levels,"[2]; 10 μM, 8 hours",1230.0 pmol/million cells
same,LddA TP Levels,"[2]; 10 μM, 24 hours",344.0 pmol/million cells
same,LddA TP Levels,"[2]; 50 μM, 1 hour",2085.0 pmol/million cells
same,LddA TP Levels,"[2]; 50 μM, 4 hours",5690.0 pmol/million cells
same,LddA TP Levels,"[2]; 50 μM, 8 hours",6030.0 pmol/million cells
same,LddA TP Levels,"[2]; 50 μM, 24 hours",3030.0 pmol/million cells
same,LddA TP Levels,"[3]; 10 μM, 1 hour",161.5 pmol/million cells
same,LddA TP Levels,"[3]; 10 μM, 4 hours",312.5 pmol/million cells
same,LddA TP Levels,"[3]; 10 μM, 8 hours",352.5 pmol/million cells
same,LddA TP Levels,"[3]; 10 μM, 24 hours",366.0 pmol/million cells
same,LddA TP Levels,"[3]; 50 μM, 1 hour",682.5 pmol/million cells
same,LddA TP Levels,"[3]; 50 μM, 4 hours",1480.0 pmol/million cells
same,LddA TP Levels,"[3]; 50 μM, 8 hours",1930.0 pmol/million cells
same,LddA TP Levels,"[3]; 50 μM, 24 hours",2062.5 pmol/million cells
same,Concentration Compound (Ex 1),"[4]; IV dose 10 mg/kg, 1 hr, Mean",80.0 pmol/g liver
same,Concentration. ddA-TP,"[4]; IV dose 10 mg/kg, 1 hr, Mean",1770 pmol/g liver
same,Concentration. ddA-TP,"[4]; IV dose 10 mg/kg, 1 hr, Mean, via hepatocellularity number",15.5 pmol/10^6 cells
same,Concentration Compound (Ex 1),[4]; [6],85.1 pmol/g liver and 65.8 pmol/g liver and 89.1 pmol/g liver
same,Concentration. ddA-TP,[4]; [6],1355 pmol/g liver and 2025 pmol/g liver and 1930 pmol/g liver
same,Concentration. ddA-TP,"[4]; IV dose 10 mg/kg, 1 hr, individual animals, via hepatocellularity number, 10 mg/kg",11.9 pmol/10^6 cells and 17.8 pmol/10^6 cells and 16.9 pmol/10^6 cells
same,Concentration Compound (Ex 1),"[4]; IV dose 10 mg/kg, 3 hrs, Mean",27.9 pmol/g liver
same,Concentration. ddA-TP,"[4]; IV dose 10 mg/kg, 3 hrs, Mean",2092 pmol/g liver
same,Concentration. ddA-TP,"[4]; IV dose 10 mg/kg, 3 hrs, Mean, via hepatocellularity number",18.3 pmol/10^6 cells
same,Concentration Compound (Ex 1),[4]; [7],28.3 pmol/g liver and 26.0 pmol/g liver and 29.3 pmol/g liver
same,Concentration. ddA-TP,[4]; [7],1345 pmol/g liver and 1940 pmol/g liver and 2990 pmol/g liver
same,Concentration. ddA-TP,"[4]; IV dose 10 mg/kg, 3 hrs, individual animals, via hepatocellularity number, 10 mg/kg",11.8 pmol/10^6 cells and 17.0 pmol/10^6 cells and 26.2 pmol/10^6 cells
same,Concentration Compound (Ex 1),"[4]; Oral dose 20 mg/kg, 1 hr, Mean",251 pmol/g liver
same,Concentration. ddA-TP,"[4]; Oral dose 20 mg/kg, 1 hr, Mean",395 pmol/g liver
same,Concentration. ddA-TP,"[4]; Oral dose 20 mg/kg, 1 hr, Mean, via hepatocellularity number",3.5 pmol/10^6 cells
same,Concentration Compound (Ex 1),[4]; [8],411 pmol/g liver and 272 pmol/g liver and 70.2 pmol/g liver
same,Concentration. ddA-TP,[4]; [8],210 pmol/g liver and 575 pmol/g liver and 400 pmol/g liver
same,Concentration. ddA-TP,"[4]; Oral dose 20 mg/kg, 1 hr, individual animals, via hepatocellularity number, 20 mg/kg",1.8 pmol/10^6 cells and 5.0 pmol/10^6 cells and 3.5 pmol/10^6 cells
same,Concentration Compound (Ex 1),[4]; [9],204 pmol/g liver
same,Concentration. ddA-TP,[4]; [9],312 pmol/g liver
same,Concentration. ddA-TP,"[4]; Oral dose 20 mg/kg, 3 hrs, Mean, via hepatocellularity number",2.7 pmol/10^6 cells
same,Concentration Compound (Ex 1),[4]; [10],360 pmol/g liver and 92.1 pmol/g liver and 161 pmol/g liver
same,Concentration. ddA-TP,[4]; [10],200 pmol/g liver and 330 pmol/g liver and 405 pmol/g liver
same,Concentration. ddA-TP,"[4]; Oral dose 20 mg/kg, 3 hrs, individual animals, via hepatocellularity number, 20 mg/kg",1.8 pmol/10^6 cells and 2.9 pmol/10^6 cells and 3.6 pmol/10^6 cells
same,Concentration Compound (Ex 1),[4]; [11],20.1 pmol/g liver
same,Concentration. ddA-TP,[4]; [11],382 pmol/g liver
same,Concentration. ddA-TP,"[4]; Oral dose 20 mg/kg, 8 hrs, Mean, via hepatocellularity number",3.3 pmol/10^6 cells
same,Concentration Compound (Ex 1),[4]; [12],16.4 pmol/g liver and 28 pmol/g liver and 16.2 pmol/g liver
same,Concentration. ddA-TP,[4]; [12],280 pmol/g liver and 805 pmol/g liver and 275 pmol/g liver
same,Concentration. ddA-TP,"[4]; Oral dose 20 mg/kg, 8 hrs, individual animals, via hepatocellularity number, 20 mg/kg",2.5 pmol/10^6 cells and 5.2 pmol/10^6 cells and 2.4 pmol/10^6 cells
"CC(C)(CO)C(=O)SCCOP(=O)(NCc1ccccc1)OC[C@H]1O[C@@H](n2ccc(N)nc2=O)[C@](C)(O)[C@@H]1O (mixture of isomers) [Example B102, Hydroxy-tBuSATE N-Benzylphosphoroamidate Derivative of 2′-C-methylcytidine]",levels of intracellular triphosphate as compared to those for NM107,[5],much higher

# — patent US20080261913A1, “Compounds and pharmaceutical compositions for the treatment of liver disorders” (Idenix Pharmaceuticals, Inc., priority 2006, published 2008)
